{"source": "patent US7223856B2", "about": "“Antisense compounds which prevent cell death and uses thereof” (The Trustees of Columbia University in the City of New York, priority 1997, dated 2007)", "key": {"naive PC12 cells [1]": {"test_system": "naive PC12 cells", "conditions": "PC12 cells and sympathetic neurons, Troy et al., 1996b; cited from earlier work"}, "PC12 cells [2]": {"test_system": "PC12 cells", "conditions": "PC12 cells and sympathetic neurons, Troy et al., 1996b; cited from earlier work"}, "naive PC12 cells [3]": {"test_system": "naive PC12 cells", "test": "Survival of naive PC12 cells after serum deprivation (intact nuclei count)", "format": "cell-based, rat", "conditions": "for protection from death caused by serum deprivation: additive at time of plating in serum-free medium, 24 hours", "experimental": "(FIG. 4B) Dose-response curve for protection from serum deprivation by V-ANedd. PC12 cells were washed for trophic factor deprivation and plated in serum-free medium with the indicated concentrations of V-ANedd. Cell survival relative to the number present with the addition of NGF was measured at one day.\nPC12 cells were grown as previously described (Greene and Tischler, 1976) on rat-tail collagen-coated dishes in RPMI 1640 medium containing 5% fetal calf serum and 10% heat-inactivated horse serum (complete medium). […] For cell survival assays involving trophic factor deprivation, cells (either naive or NGF-pretreated) were extensively washed in serum-free RPMI 1640 medium and re-plated on fresh collagen-coated 24-well dishes as previously described (Rukenstein et al., 1991) in RPMI 1640 medium lacking serum or NGF. […] Various concentrations of V-ANedd (vector linked antisense oligonucleotide to Nedd2) were included in the medium as indicated. Numbers of viable cells per culture were determined by quantifying intact nuclei as previously described (Rukenstein et al., 1991). Counts were performed in triplicate and reported as means ±SEM."}, "Jurkat cells": {"test_system": "Jurkat cells", "test": "Anti-Fas mediated death of Jurkat cells", "format": "cell-based, human", "conditions": "dose-dependent, FIG. 8", "text": "FIG. 8. […] V-ICH is an antisense oligonucleotide having an antisense sequence of human Ich, specifically V-AICH has the sequence of Seq ID No. 2.\n• 1. […] Beta-amyloid peptide mediates apoptosis in PC12 cells. This apoptosis can be abrogated by down-regulation of Nedd2. Clinical Relevance of Antisense Oligonucleotides."}, "sympathetic neurons [4]": {"test_system": "sympathetic neurons", "test": "Sympathetic neuron death by SOD1 down-regulation and nitric oxide generation (V-ASOD1 + SNAP)", "format": "cell-based, rat", "conditions": "V-ASOD1 50 nM, SNAP 100 μM, with NGF", "method": "Sympathetic neurons, after 6 days in culture, were maintained with NGF (100 ng/ml) and mixtures of the following additives as indicated: V-ASOD1 (50 nM), SNAP (100 μM) and V-ANedd (400 nM). Numbers of surviving neurons were determined at the indicated times as above.\n(§1) Sympathetic neuron cultures were prepared from 2 day old rat pups, as previously described (Ferrari et al., 1995). Cultures were grown in 24-well collagen coated dishes in RPMI 1640 medium plus 10% horse serum with mouse NGF (100 ng/ml). One day following plating, uridine and 5-fluorodeoxyuridine (10 μM each) were added to the cultures and left for three days to eliminate non-neuronal cells. On the sixth day following plating NGF was removed by washing the cultures three times with RPMI 1640 medium plus 10% horse serum, followed by the addition of medium containing anti-mouse NGF (1:200, Sigma, St. Louis, Mo.) with or without V-ANedd. Each culture was scored, as previously described (Rydel and Greene, 1988), as numbers of living, phase-bright neurons at various times. Three replicate cultures were assessed for each condition and data are normalized to numbers of neurons present in each culture at the time of NGF withdrawal and reported as mean ±SEM."}, "[5]": {"test_system": "neuronally differentiated PC12 cells", "test": "Survival of neuronally differentiated PC12 cells after SOD1 down-regulation", "format": "cell-based, rat", "conditions": "50 nM V-ASOD1", "method": "(§2) (FIG. 5A) V-ANedd differentially protects neuronally differentiated PC12 cells from apoptosis caused by NGF withdrawal. PC12 cells were neuronally differentiated by exposure to NGF (100 ng/ml) for at least 7 days in RPMI 1640 medium plus 1% horse serum. Cells were deprived of serum and NGF and re-plated as described in FIGS. 4A–C. Additives present at the time of plating included 400 nM V-ANedd, 400 nM V-ICEinh or 100 ng/ml NGF (4 left-hand bars). For SOD1 down-regulation (4 right-hand bars) neuronally differentiated PC12 cells were plated in RPMI 1640 medium plus 1% horse serum, with 100 ng/ml NGF. At the time of plating, cultures were incubated, as indicated, with 50 nM V-ASOD1 and with the indicated additives (800 nM V-ANedd, 50 nM V-ICEinh). Cell survival was determined after one day and expressed as in FIGS. 4A–C.\n(§3) PC12 cells were grown as previously described (Greene and Tischler, 1976) on rat-tail collagen-coated dishes in RPMI 1640 medium containing 5% fetal calf serum and 10% heat-inactivated horse serum (complete medium). NGF primed (neuronally differentiated) PC12 cells were grown for at least 7 days in RPMI 1640 medium plus 1% horse serum and NGF (100 ng/ml). […] Numbers of viable cells per culture were determined by quantifying intact nuclei as previously described (Rukenstein et al., 1991). […]"}, "PC12 cells [6]": {"test_system": "PC12 cells", "test": "Survival of PC12 cells after SOD1 down-regulation by V-ASOD1", "format": "cell-based, rat", "method": "(FIG. 4A) V-ANedd differentially protects PC12 cells from serum deprivation. For serum deprivation (4 left-hand bars) cells were extensively washed as described in Experimental Procedures hereinbelow and the indicated additives (100 ng/ml NGF, 400 nM V-ANedd, or 200 nM V-ICEinh were added at the time of plating in serum-free RPMI1640 medium. For SOD1 down-regulation (4 right-hand bars), PC12 cells were re-plated on fresh collagen-coated 24-well dishes in complete medium (RPMI 1640 medium with 10% horse serum, 5% fetal bovine serum) with 50 nM V-ASOD1 (vector linked antisense oligonucleotide to SOD1). Additives (800 nM V-ANedd, 25 nM V-ICEinh) were included as indicated. Control cells were in complete medium. Cultures were incubated for 24 hours, lysed and number of intact nuclei counted. The numbers of surviving cells are expressed relative to the number in the control cultures (designated as 100). […] Experiments were performed in triplicate wells and data are expressed as means ±SEM.\nas §3, with “medium).” for “medium). NGF primed (neuronally differentiated) PC12 cells were grown for at least 7 days in RPMI 1640 medium plus 1% horse serum and NGF (100 ng/ml).”"}, "Nedd2 [7]": {"test_system": "Nedd2", "test": "Western blot of Nedd2 in PC12 cell lysates", "format": "cell-based, rat", "text": "The cells were extracted in sample buffer, the extracts boiled and equal amounts of protein resolved by 10% SDS-PAGE and transferred to nitrocellulose. Blots were probed with (FIG. 3A) anti-N-Nedd at 1:500 or (FIG. 3B) anti-C-Nedd at […] and staining visualized with ECL. Bands were quantified using Scion Image® software and normalized against peripherin levels. The level of down-regulation is representative of that obtained in 5 independent experiments.\nPC12 cells grown with or without V-ANedd or V-SNedd were harvested in SDS-containing sample buffer and immediately boiled. Equal amounts of protein were separated by 10% PAGE, transferred to nitrocellulose and immunostained as described (Troy et al., 1992). The affinity purified anti-N-Nedd2 was used at a dilution of 1:500. The commercial antiserum, Nedd2 p12 C20 (Santa Cruz Biotechnology), was used at a dilution of 1:350. Visualization was with ECL using goat-anti-rabbit peroxidase at 1:1000. The relative intensity of the protein bands were quantified using Scion Image 1.55® software and samples were normalized by stripping and reprobing the blots with anti-peripherin antibody."}, "CPP-32": {"test_system": "CPP-32", "test": "Western blot of the same samples probed with anti-CPP32", "format": "cell-based, rat", "conditions": "blots of the same samples probed with anti-CPP32"}, "sympathetic neurons [8]": {"test_system": "sympathetic neurons", "test": "Survival of sympathetic neurons after NGF deprivation", "format": "cell-based, rat", "conditions": "for survival: single addition at time of NGF withdrawal", "method": "(FIG. 6A) V-ANedd protects sympathetic neurons from NGF-withdrawal. At the time of NGF deprivation, V-ANedd (400 nM) was added to the cultures as indicated. Numbers of surviving neurons were determined at the indicated times as described in Experimental Procedures hereinbelow and are reported as relative to the number present in each culture at the time of NGF withdrawal.\nas §1"}, "[9]": {"test_system": "neuronally differentiated PC12 cells", "test": "Survival of neuronally differentiated PC12 cells after NGF withdrawal", "format": "cell-based, rat", "method": "as §2\n(FIG. 5B) Dose-response curve for protection from NGF deprivation by V-ANedd. Neuronally differentiated PC12 cells were washed as above for NGF deprivation and plated in serum-free medium with the indicated concentrations of V-ANedd. Cell survival relative to the number present with the addition of NGF was quantified at one day.\n(FIG. 5C) V-ANedd provides long term protection against NGF deprivation. Neuronally differentiated PC12 cells were deprived of NGF and serum and plated as described in FIG. 5A. V-ANedd (400 nM) was included at the time of NGF deprivation and replenished 1 day later. Cell survival was determined at the indicated times as in FIGS. 4A–C.\nas §3"}, "IL-1β": {"test_system": "IL-1β", "test": "IL-1β release from PC12 cells by ELISA", "format": "cell-based, rat", "conditions": "50 nM V-ASOD1, 800 nM V-ANedd, 20 hours", "method": "PC12 cells were plated with the indicated additives (50 nM V-ASOD1, 25 nM V-ICEinh, 800 nM V-ANedd). Controls contained complete medium. After 20 hours, media were removed and IL-1β was measured by ELISA using the Intertest-1βX® kit. Data are expressed as means ±SEM (n=3).\nIL-1β was quantified by ELISA using the Intertest-1βX® kit (Genzyme, Cambridge, Mass.) as previously described (Troy et al., 1996b). PC12 cells were grown as described above, on 24-well plates, in 500 μl of medium. After one day incubation, medium was removed and IL-1β measured following the manufacturer's instructions, and number of viable cells in each well quantified."}, "Nedd2 [10]": {"test_system": "Nedd2", "test": "Nedd2 immunofluorescence staining of PC12 cells with anti-N-Nedd2", "format": "cell-based, rat", "conditions": "400 nM, 24 hours, naive and neuronal PC12 cells", "method": "Naive and neuronally differentiated PC12 cells (pretreated for at least 7 days with NGF, nerve growth factor) were plated on Matrigel coated multichamber slides. V-ANedd (400 nM) was added to the indicated cultures after plating. Naive cultures were grown in RPMI 1640 medium with 5% FCS and 10% horse serum; neuronal cultures were grown in RPMI 1640 medium with 1% horse serum and NGF (100 ng/ml). After overnight maintenance, cells were fixed in ice cold methanol and then immunostained with anti-N-Nedd.\nPC12 cells were plated on coverslips or on 8 well multichamber slides (LabTek, VWR), coated with Matrigel®. After growth overnight, cells were fixed in ice cold methanol and then immunostained as described (Troy et al., 1990). The primary antibody was either affinity purified antibody Anti-N-Nedd2 or Nedd2 p12 C20 (Santa Cruz Biotechnology) at a dilution of 1:200. The secondary antibody was fluoroscein isothiocyanate-conjugated goat anti-rabbit (Cappel, Durham, N.C.) at 1:100. For visualization with a Nikon® fluorescence microscope slides were coverslipped with Aqua-mount®. Confocal microscopy was done on a BioRad® 600 confocal microscope."}}}
{"substance": "IL-1Ra: IL-1 receptor antagonist", "values": [{"measurement": "death caused by trophic factor/NGF withdrawal (literature)", "setting": "naive PC12 cells [1]", "value": "little or no effect"}, {"measurement": "apoptosis following SOD1 down-regulation (literature)", "setting": "PC12 cells [2]", "value": "suppressed"}]}
{"substance": "NGF: nerve growth factor", "values": [{"measurement": "protection from death caused by serum deprivation", "setting": "naive PC12 cells [3]", "value": "promotes survival of all cells initially plated"}]}
{"substance": "V-AICH: antisense oligonucleotide having an antisense sequence of human Ich, Seq ID No. 2 (GTCAGCGGCCATCAGCTT) (linked to vector peptide (Penetratin1), oligo chemistry not given here)", "values": [{"measurement": "protection from anti-Fas mediated death", "setting": "Jurkat cells", "value": "protect from anti-Fas mediated death in a dose-dependent manner"}]}
{"substance": "V-ANedd: Penetratin1-linked antisense oligonucleotide to Nedd2, GCTCGGCGCCGCCATTTCCAG (SEQ ID NO:1) (Penetratin1 peptide conjugated, oligonucleotide chemistry not given here)", "values": [{"measurement": "effect on sympathetic neuron death evoked by V-ASOD1+SNAP", "setting": "sympathetic neurons [4]", "value": "without effect"}, {"measurement": "protection from down-regulation of SOD1", "setting": "[5]", "value": "not from down-regulation of SOD1"}, {"measurement": "protection from SOD1 down-regulation", "setting": "PC12 cells [6]; naive PC12 cells, 50 nM V-ASOD1, V-ANedd up to 800 nM", "value": "no protection from SOD1 down-regulation"}, {"measurement": "protection from SOD1 down-regulation after pretreatment", "setting": "PC12 cells [6]; pretreatment with V-ANedd", "value": "without effect"}, {"measurement": "down-regulation of major band and minor Nedd2 bands", "setting": "Nedd2 [7]; 18–22 hours treatment, n=4", "value": "60–70%"}, {"measurement": "down-regulation of Nedd2 in the presence of V-ASOD1", "setting": "Nedd2 [7]; in the presence of V-ASOD1", "value": "did down-regulate Nedd2"}, {"measurement": "down-regulation of CPP-32", "setting": "CPP-32", "value": "no down-regulation of CPP-32"}, {"measurement": "maintenance of neurites of NGF-deprived neurons", "setting": "sympathetic neurons [8]; 400 nM, NGF-free medium with anti-NGF", "value": "did not maintain the neurites"}, {"measurement": "survival", "setting": "sympathetic neurons [8]; after 4 days", "value": "over 60%"}, {"measurement": "survival", "setting": "sympathetic neurons [8]; at 8 days", "value": 25, "unit": "%"}, {"measurement": "NGF-like flattening of naive PC12 cells or neurite outgrowth from neuronally-differentiated cells", "setting": "[9]; morphology, 400 nM, 24 hr", "value": "did not mimic the actions of NGF"}, {"measurement": "protection from apoptosis caused by NGF withdrawal", "setting": "[9]; neuronally differentiated PC12 cells, one day", "value": "protected neuronally differentiated PC12 cells from apoptosis caused by NGF withdrawal"}, {"measurement": "survival of cells", "setting": "[9]; two successive additions (at NGF deprivation and one day later), through 4 days", "value": "greater than 75%"}, {"measurement": "concentration of maximal protection", "setting": "naive PC12 cells [3]; added at the same time as serum withdrawal", "value": 400, "unit": "nM"}, {"measurement": "protection from death caused by serum deprivation", "setting": "naive PC12 cells [3]", "value": "protects naive PC12 cells from death caused by serum deprivation"}, {"measurement": "concentration of maximal survival after pretreatment", "setting": "naive PC12 cells [3]; pretreatment for 4 hours with 50 nM V-ANedd", "value": 100, "unit": "nM"}, {"measurement": "IL-1β release after exposure to ASOD1", "setting": "IL-1β", "value": "did not affect IL-1β release"}, {"measurement": "anti-N-Nedd2 staining (immunohistochemistry)", "setting": "Nedd2 [10]", "value": "decreased to almost undetectable levels"}]}
{"substance": "V-SNedd: control scrambled oligonucleotide CCGTAGCGTAGCTCCGCCTGC (SEQ ID NO:5) linked to vector peptide Penetratin 1 (linked to vector peptide Penetratin 1, further chemistry not given here) [reference compound]", "values": [{"measurement": "down-regulation of Nedd2 bands (in words)", "setting": "Nedd2 [7]; control oligonucleotide, Western blot", "value": "did not down-regulate any of the bands"}, {"measurement": "protection from death caused by serum deprivation", "setting": "naive PC12 cells [3]", "value": "no effect on survival or death"}, {"measurement": "anti-N-Nedd2 staining (immunohistochemistry)", "setting": "Nedd2 [10]", "value": "no change in staining"}]}
